Measured values taken from patent publication US20190359653A1, “SELECTIVE PEPTIDE INHIBITORS OF FRIZZLED” (Genentech, Inc., priority 2016, published 2019).
“Also recorded” adds a separate entry of the source.

Tests used:
[1] = tested on: Wnt5a binding to FZD1 CRD, FZD2 CRD, and FZD7 CRD; experiment: ELISA of biotinylated Wnt5a binding to FZD CRD-Fc
Procedure: 384-well Maxisorp plates (cat. no. 464718; Thermo Scientific) were incubated with 30 μL of Neutravidin (cat. no. 31000, Thermo Scientific; 2 μg/mL in PBS) overnight at 4° C. Plates were then washed with PBST and blocked with PBS/1% BSA for 1 hour at RT and then washed with PBST prior to further processing. The binding assay was conducted in 96 well plates (cat no. 83007-374; VWR) which were blocked with PBS/1% BSA overnight at 4° C. hFZD4 CRD-Fc or hFZD7 CRD-Fc (63 ng/mL) were incubated with either Bio-Wnt3a (25 ng/mL) or Bio-Wnt5a (50 ng/mL) in the presence of 4-fold serial dilutions of the indicated peptide in PBS overnight at 4° C. All assays included hFZD9 CRD-mIgG2A protein as a negative control. hFZD7 CRD-His was suspended in 150 mM NaCl, 50 mM Tris-HCl at pH 7.5 and when used in assays an equal volume of the same buffer control was used. The binding assay mixtures were transferred to the Neutravidin coated plates and incubated for ˜1 h at RT. The wells were then washed with PBST, incubated with anti-hIgG1-HRP (1:10,000 suspended in PBS supplemented with 1% BSA; cat. no. A18817, Invitrogen), and washed again with PBST. The signal was developed with the addition of TMB reagent (following the manufacturer's recommendation; KPL; 50-76-00) for 15 min prior to the addition of an equal volume of 1 M phosphoric acid for 10 min Absorbance was measured at 450 nm using a Tekan M1000 plate reader. Values were collected and plotted using Prism Graphpad software. All assay conditions using peptides were at 1% DMSO final concentration. […]
Briefly, the assays were performed using (a) FZD1 CRD-Fc, (b) FZD2 CRD-Fc, (c) FZD4 CRD-Fc, or (d) FZD7 CRD-Fc as the capture reagent and biotinylated-Wnt5a as the detection reagent. […] Streptavidin-HRP was used to detect biotinylated Wnt5a, and HRP activity was measured as a function of chemiluminescence detection at 428 nm. […]

[2] = biological target: T1, Wnt3a binding to FZD4 CRD (Homo sapiens, UniProt Q9ULV1); experiment: ELISA of biotinylated Wnt3a binding to FZD CRD-Fc; conditions: peptide 0-10 μM
T1 construct: hFZD4 CRD-Fc (cat no. 5847-FZ); purchased R&D systems 5847-FZ
T1 sequence (Q9ULV1 40-161 limits assumed): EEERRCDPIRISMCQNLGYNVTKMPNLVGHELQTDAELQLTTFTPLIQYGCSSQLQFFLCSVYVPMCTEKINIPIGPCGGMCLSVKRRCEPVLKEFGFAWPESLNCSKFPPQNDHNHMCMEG
Procedure: 384-well Maxisorp plates (cat. no. 464718; Thermo Scientific) were incubated with 30 μL of Neutravidin (cat. no. 31000, Thermo Scientific; 2 μg/mL in PBS) overnight at 4° C. Plates were then washed with PBST and blocked with PBS/1% BSA for 1 hour at RT and then washed with PBST prior to further processing. The binding assay was conducted in 96 well plates (cat no. 83007-374; VWR) which were blocked with PBS/1% BSA overnight at 4° C. hFZD4 CRD-Fc or hFZD7 CRD-Fc (63 ng/mL) were incubated with either Bio-Wnt3a (25 ng/mL) or Bio-Wnt5a (50 ng/mL) in the presence of 4-fold serial dilutions of the indicated peptide in PBS overnight at 4° C. All assays included hFZD9 CRD-mIgG2A protein as a negative control. hFZD7 CRD-His was suspended in 150 mM NaCl, 50 mM Tris-HCl at pH 7.5 and when used in assays an equal volume of the same buffer control was used. The binding assay mixtures were transferred to the Neutravidin coated plates and incubated for ˜1 h at RT. The wells were then washed with PBST, incubated with anti-hIgG1-HRP (1:10,000 suspended in PBS supplemented with 1% BSA; cat. no. A18817, Invitrogen), and washed again with PBST. The signal was developed with the addition of TMB reagent (following the manufacturer's recommendation; KPL; 50-76-00) for 15 min prior to the addition of an equal volume of 1 M phosphoric acid for 10 min Absorbance was measured at 450 nm using a Tekan M1000 plate reader. Values were collected and plotted using Prism Graphpad software. All assay conditions using peptides were at 1% DMSO final concentration.
Without being bound be theory, the substantial conformational change induced by dFz7-21 on hFZD7 CRD, as exemplified by the altered geometry of the lipid binding cavity, may facilitate the accommodation of two Wnt molecules simultaneously onto the hFZD7 CRD dimer (FIG. 4e-h).
Similar results were observed using Wnt3a. […] Binding of Wnt3a to FZD1 CRD, FZD2 CRD, and FZD7 CRD increased in the presence of dFz7-21 at concentrations below about 0.5 μM (FIG. 22E), with the most binding seen in the presence of 0.01 μM-0.05 μM dFz7-21. […] Fz7-21S had no effect on Binding of Wnt3a to any of the FZD CRDs tested (FIG. 22F).

[3] = tested on: intestinal epithelia of C57BL/6 mice; experiment: RT-PCR of intestinal epithelia from treated mice; type: in vivo, mouse; conditions: intraperitoneal, 6 h; FIGS. 20A-20C
Procedure: RNA from organoid samples was isolated using the RNeasy Micro kit (cat. no. 74004; Qiagen) according to the manufacturer's instructions. Mouse small intestine RNA was collected using the RNeasy Mini Kit (cat. no. 74104; Qiagen). qRT-PCR was performed in 10 μL reactions with 50 ng total RNA using One-step Real-time RT-PCR mastermix (cat. no. 4392938; Life Technologies) according to the manufacturer's instructions. Taqman probes from Life Technologies were used: Actb (Mm01205647_g1); Lgr5 (Mm01251801_m1); Axin2 (Mm00443610_m1); Ascl2 (Mm01268891_g1); Olfm4 (Mm01320260_m1); Muc2 (Mm01276696_m1); ACTB(Hs99999903_m1); ACTB(Mm00607939_s1); GAPDH (Mm99999915_g1); and GAPDH(Hs03929097_g1). RT-PCR reactions were run using a 7900HT Fast Real-Time PCR system (ABI) at the following thermal cycling conditions: Holding step of 30 min at 48° C., followed by a holding step of 10 min at 95° C., and 40 cycles of 10 sec at 95° C. and 1 min at 60° C. Values were normalized to actin transcript levels and then normalized to control as described in the figure legend.
C57BL/6 female mice (8 weeks old) were subjected to intraperitoneal injection once per hour (˜150-200 μL injection volume for five injections) until the indicated peptide dose was reached. […]
The pharmacological effect of dFz7-21 was further investigated in vivo. […] Following treatment, RT-PCR was performed to quantify transcript levels.

**Q.** What does the source list for LPSDDLEFWCHVMY [dFz7-21]?
**A.** peptide concentration with the most Wnt5a binding ([1]; FIGS. 22A, 22B): 0.05 µM; effect on Wnt3a binding to FZD4 CRD [2]: did not show any effect; also recorded: Neither Fz7-21 nor dFz7-21 had any effect; Lgr5, Ascl2 and Axin2 transcript levels [3]: significantly down regulated

**Q.** What does the source list for “LPSDDLEFWSHVMY [Fz7-21S, negative control]”?
**A.** effect on Wnt5a binding to FZD1, FZD2 and FZD7 CRD ([1]; peptide 0-10 μM): showed no effect; effect on Wnt3a binding to FZD4 CRD [2]: showed no effect; Lgr5, Ascl2 and Axin2 transcript levels [3]: did not affect
